Data reported in publication PMC8179539, “Query-guided protein–protein interaction inhibitor discovery” (Chemical Science, 2021).
Values joined by “and” are separate entries in the source; they are usually repeats but may differ in a detail not shown here. Equal entries are not always repeated. Where two headings read alike, the source gives them in different places.

How the values were obtained:
p53/hDM2 = p53/hDM2 (Homo sapiens, UniProt Q00987); assay: competition fluorescence anisotropy assay, displacement of p53 15-31 Flu from hDM2; assay type: binding; details: for ligand efficiency: LE = 1.4 × pIC50/nHA, from p53/hDM2 fluorescence anisotropy IC50
BID/MCL-1 = BID/MCL-1 (Homo sapiens, UniProt Q07820); details: 200 nM MCL-1, 50 nM FITC-Ahx-NOXA-B tracer (Fig. S10)
GKAP/SHANK1-PDZ = target: T1, GKAP/SHANK1-PDZ (Homo sapiens, UniProt Q9Y566); assay: fluorescence anisotropy competition assay GKAP/SHANK1-PDZ; assay type: binding; details: for IC50: FITC-GKAP 50 nM, SHANK1-PDZ 1 μM, pH 7.4, 20 mM Tris, 150 mM NaCl, 0.01% Triton-X-100
T1 construct: Shank 1 PDZ domain (656-762) was expressed and purified as described; made in house
T1 sequence (Q9Y566 656-762): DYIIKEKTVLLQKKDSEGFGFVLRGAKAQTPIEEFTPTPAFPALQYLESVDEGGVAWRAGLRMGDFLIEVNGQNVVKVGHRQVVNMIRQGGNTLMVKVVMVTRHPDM

SHANK1-PDZ = SHANK1-PDZ (Homo sapiens, UniProt Q9Y566); assay: biochemical
[1] = Table S2, SAR competition assays, Plate Reader II, read-out: IC50
[2] = fluorescence anisotropy competition, 150 nM hDM2, 25 nM p53 15-31 Flu, 40 mM phosphate pH 7.4, 200 mM NaCl, 0.02 mg/ml BSA, read-out: IC50
[3] = Table S2, SAR competition assays, Plate Reader II, * lower anisotropy observed, attributed to solubility causing assay interference (7a, 7b, 7c), read-out: IC50
[4] = Fig. 4b, same assay, unit inferred, † non-specific interactions observed (11c), read-out: IC50 (Fig. 4b, numbers inside wedges)
[5] = Fig. 4b, fluorescence anisotropy competition: 150 nM hDM2 and p53 15-31 Flu, 40 mM phosphate, pH 7.4, 200 mM NaCl, 0.02 mg/ml BSA, > 150 μM, read-out: IC50 (Fig. 4b)

IC50 (p53/hDM2; [1])	IC50 (p53/hDM2; [2])	IC50 (p53/hDM2; [3])	Compound	other results
1.7 ± 0.2 µM	1 µM	–	O=C(CC(c1ccc(Cl)s1)c1c(Br)[nH]c2cc(Cl)ccc12)NCCc1ccccn1 (stereo not drawn) [11a]	IC50 (p53/hDM2; [4]): 2 µM; ligand efficiency (p53/hDM2): 0.28
2.9 ± 0.2 µM	–	–	O=C(CC(c1ccc(Cl)s1)c1c(C(=O)O)[nH]c2ccc(Cl)cc12)NCCc1ccccn1 (stereo not drawn) [11b]	IC50 (p53/hDM2; [4]): 3 µM; ligand efficiency (p53/hDM2): 0.26
3.2 ± 0.7 µM	–	–	CCOC(=O)CCNC(=O)c1[nH]c2ccc(Cl)cc2c1C(CC(=O)NCCc1ccccn1)c1ccc(Cl)s1 (stereo not drawn) [11c]	IC50 (p53/hDM2; [4]): 3 µM
12 ± 9 µM	–	–	O=C(CC(c1ccc(Cl)s1)c1c(Br)[nH]c2ccc(Cl)cc12)NCCc1ccccn1 (stereo not drawn) [11d]	–
14 ± 2 µM	–	–	O=C(O)CCNC(=O)c1[nH]c2ccc(Cl)cc2c1C(CC(=O)NCCc1ccccn1)c1ccc(Cl)s1 (stereo not drawn) [11e]	–
25 ± 4 µM	25 µM	–	NCCNC(=O)c1[nH]c2ccc(Cl)cc2c1C(CC(=O)NCCc1ccccn1)c1ccc(Cl)s1 (stereo not drawn) [11f]	–
> 200 µM	–	–	CC(C)(C)OC(=O)NCCNC(=O)c1[nH]c2ccc(Cl)cc2c1C(CC(=O)NCCc1ccccn1)c1ccc(Cl)s1 (stereo not drawn) [11g]	–
> 200 µM	–	–	O=C(CC(c1ccc(Cl)s1)c1c(C(=O)NCc2ccccc2)[nH]c2ccc(Cl)cc12)NCCc1ccccn1 (stereo not drawn) [11h]	–
> 200 µM	–	–	CC(C)CNC(=O)c1[nH]c2ccc(Cl)cc2c1C(CC(=O)NCCc1ccccn1)c1ccc(Cl)s1 (stereo not drawn) [11i]	–

Further lines, the compound ahead of its results:

Compound	IC50 (p53/hDM2; [1])	IC50 (p53/hDM2; [2])	IC50 (p53/hDM2; [3])	other results
CC(C(=O)NCCc1ccccn1)C(c1ccc(Cl)s1)c1c[nH]c2ccc(Cl)cc12 (single isomer, unassigned; (+)) [(+)-anti-10]	2.9 ± 0.4 µM	2.9 µM	–	–
CC(C(=O)NCCc1ccccn1)C(c1ccc(Cl)s1)c1c[nH]c2ccc(Cl)cc12 (single isomer, unassigned; (-)) [(−)-anti-10]	4.6 ± 0.6 µM	4.6 µM	–	–
O=C(CC(c1ccc(Cl)s1)c1c[nH]c2ccc(Cl)cc12)NC1CC1c1ccccc1 (stereo not drawn) [7a]	–	–	1.2 ± 1 µM	–
O=C(CC(c1ccc(Cl)s1)c1c[nH]c2ccc(Cl)cc12)NCCc1ccccc1 (stereo not drawn) [7b]	–	–	13 ± 2 µM	–
O=C(CC(c1ccc(Cl)s1)c1c[nH]c2ccc(Cl)cc12)NCc1ccccc1 (stereo not drawn) [7c]	–	–	5 ± 2 µM	p53/hDM2 inhibitory activity in words (SAR) (p53/hDM2; competition anisotropy, SAR discussion): loss of activity
COCCNC(=O)CC(c1ccc(Cl)s1)c1c[nH]c2ccc(Cl)cc12 (stereo not drawn) [7d]	–	–	> 200 µM	–
O=C(CC(c1ccc(Cl)s1)c1c[nH]c2cc(Cl)ccc12)NCCc1ccccn1 (stereo not drawn) [8a]	–	6 µM	10 ± 2 µM	–
O=C(CC(c1ccc(Cl)s1)c1c[nH]c2cc(Cl)ccc12)NCCc1ccccc1 (stereo not drawn) [8b]	–	–	18 ± 11 µM	–
COCCNC(=O)CC(c1ccc(Cl)s1)c1c[nH]c2cc(Cl)ccc12 (stereo not drawn) [8c]	–	–	86 ± 29 µM	–
O=C(CC(c1ccccc1)c1c[nH]c2ccc(Cl)cc12)NCCc1ccccn1 (stereo not drawn) [9a]	–	–	> 200 µM	–
O=C(CC(c1ccccc1)c1c[nH]c2ccc(Cl)cc12)NCCc1ccccc1 (stereo not drawn) [9b]	–	–	> 200 µM	–
COCCNC(=O)CC(c1ccccc1)c1c[nH]c2ccc(Cl)cc12 (stereo not drawn) [9d]	–	–	> 200 µM	–
O=C(CC(c1ccc(Cl)s1)c1c[nH]c2ccc(Cl)cc12)NCCc1ccccn1 (stereo not drawn) [A1]	–	7.9 µM and 8 µM	7.9 ± 0.9 µM	IC50 (p53/hDM2; [4]): 8 µM; ligand efficiency (p53/hDM2): 0.24; inhibition in FA competition assay for BID/MCL-1 (BID/MCL-1): no inhibition
NS(=O)(=O)c1ccc2c(c1)[C@@H]1C=CC[C@@H]1[C@H](C(=O)O)N2 [Z-1]	–	–	–	IC50 (GKAP/SHANK1-PDZ): 390 µM; ligand efficiency (LE) (GKAP/SHANK1-PDZ; from GKAP/SHANK1-PDZ fluorescence anisotropy IC50): 0.24
O=C(O)c1ccc([N+](=O)[O-])c2c1NC(C(=O)O)[C@H]1CC=C[C@@H]21 (stereo partly drawn) [Z-2, reference compound]	–	–	–	IC50 (GKAP/SHANK1-PDZ): ~110 µM
CC(C(=O)NCCc1ccccn1)C(c1ccc(Cl)s1)c1c[nH]c2ccc(Cl)cc12 (stereo not drawn) [anti-10]	3.1 ± 0.4 µM	3.1 µM	–	ligand efficiency (p53/hDM2): 0.26
CC(C)(C(=O)NCCc1ccccn1)C(c1ccc(Cl)s1)c1c[nH]c2ccc(Cl)cc12 (stereo not drawn) [compound 12]	8 ± 4 µM	~8 µM	–	IC50 (p53/hDM2; [5]): 8 µM
CC(C(=O)N1CCC(c2ccccn2)C1)C(c1ccc(Cl)s1)c1c[nH]c2cc(Cl)ccc12 (stereo not drawn) [compound 13]	1.2 ± 0.4 µM	1.2 µM	–	IC50 (p53/hDM2; [5]): 1 µM
O=C(CC(c1ccc(Cl)s1)c1c(C(=O)O)[nH]c2ccc(Cl)cc12)NC1CC1c1ccccc1 (stereo not drawn) [compound 14]	2.2 ± 0.5 µM	2.2 µM	–	IC50 (p53/hDM2; [5]): 2 µM
CC(C(=O)NCCc1ccccn1)C(c1ccc(Cl)s1)c1c[nH]c2ccc(Cl)cc12 (stereo not drawn) [syn-10]	21 ± 14 µM	–	–	–
Ac-EAQTRF-OH [L6F GKAP, Ac-Glu-Ala-Gln-Thr-Arg-Phe-CO2H]	–	–	–	Kd (SHANK1-PDZ): 5 µM
